Reference: patent US9789082B2, “Somatostatin receptor subtype 4 (SSTR4) agonists” (Centrexion Therapeutics Corporation, priority 2013, dated 2017)
Where two headings read alike, the source gives them in different places.

Legend:
[1] = molecular target: human Somatostatin 4 receptor (SSTR4) (Homo sapiens (Human), UniProt P31391); assay: cAMP assay with human somatostatin 4 receptor (hSSTR4 expressing H4 cells); type: cell-based
human SSTR4 = human SSTR4 (Homo sapiens (Human), UniProt P31391); assay: Radioligand binding assay, CHO cell membranes expressing recombinant human SSTR4
Source text: (§1) Radioligand Binding Assays
(§2) Method Description for Binding Assays with Human Somatostatin Receptors by Use of CHO Cell Membranes Expressing Recombinant Human SSTR1 or Human SSTR2 or Human SSTR3 or Human SSTR4 or Human SSTR5
(§3) Receptor binding assays refer to a technique in which labeled receptor ligands are used to detect binding to a receptor. In competition experiments test compounds, which are not labeled, compete with the binding side of a labeled ligand. The displacement of the labeled ligand by the test compound leads to a decreased signal.
(§4) For the binding experiments 200 μL of membrane homogenate from one of the following protein amounts is used: hSSTR1 (40 μg/well); hSSTR2 (25 μg/well); hSSTR3 (1.5 μg/well); hSSTR4 (0.5 μg/well); hSSTR5 (25 μg/well). […] The incubation is terminated by filtration with ice cold NaCl 0.9% through polyethyleneimine treated (0.3%) GF/B glass fiber filters using a cell harvester. The protein-bound radioactivity is measured in a suitable reader. The non-specific binding is defined as radioactivity bound in the presence of 1 μM Somatostatin-14 during the incubation period.
(§5) The analysis of the concentration-binding curves is performed by computer-assisted nonlinear least square curve fitting method using the model of one receptor binding site.
(§6) Selectivity data was obtained with the aid of the above described radioligand binding assays.

human SSTR1 = human SSTR1 (Homo sapiens (Human), UniProt P30872); assay: Radioligand binding assay, CHO cell membranes expressing recombinant human SSTR1
Source text: as §1, §2, §3, §4, §5, §6

human SSTR2 = human SSTR2 (Homo sapiens (Human), UniProt P30874); assay: Radioligand binding assay, CHO cell membranes expressing recombinant human SSTR2
Source text: as §1, §2, §3, §4, §5, §6

human SSTR3 = human SSTR3 (Homo sapiens (Human), UniProt P32745); assay: Radioligand binding assay, CHO cell membranes expressing recombinant human SSTR3
Source text: as §1, §2, §3, §4, §5, §6

human SSTR5 = human SSTR5 (Homo sapiens (Human), UniProt P35346); assay: Radioligand binding assay, CHO cell membranes expressing recombinant human SSTR5
Source text: as §1, §2, §3, §4, §5, §6

[2] = Metabolic stability in pooled human liver microsomes (half-life); type: in vitro ADME; conditions: pooled human liver microsomes, pH 7.6, 37° C., 1 μM test compound, read-out: Half-life t1/2
Protocol: The metabolic stability of the compounds according to the invention may be investigated as follows:
The metabolic degradation of the test compound is assayed at 37° C. with pooled human liver microsomes. The final incubation volume of 100 μl per time point contains TRIS buffer pH 7.6 at room temperature (0.1 M), magnesium chloride (5 mM), microsomal protein (1 mg/mL) and the test compound at a final concentration of 1 μM. Following a short preincubation period at 37° C., the reactions are initiated by addition of beta-nicotinamide adenine dinucleotide phosphate, reduced form (NADPH, 1 mM), and terminated by transferring an aliquot into solvent after different time points. After centrifugation (10000 g, 5 min), an aliquot of the supernatant is assayed by LC-MS/MS for the amount of parent compound. The half-life is determined by the slope of the semi-logarithmic plot of the concentration-time profile.

[3] = cAMP assay, read-out: SSTR4 agonism EC50

human SSTR5, sequence (P35346 whole entry): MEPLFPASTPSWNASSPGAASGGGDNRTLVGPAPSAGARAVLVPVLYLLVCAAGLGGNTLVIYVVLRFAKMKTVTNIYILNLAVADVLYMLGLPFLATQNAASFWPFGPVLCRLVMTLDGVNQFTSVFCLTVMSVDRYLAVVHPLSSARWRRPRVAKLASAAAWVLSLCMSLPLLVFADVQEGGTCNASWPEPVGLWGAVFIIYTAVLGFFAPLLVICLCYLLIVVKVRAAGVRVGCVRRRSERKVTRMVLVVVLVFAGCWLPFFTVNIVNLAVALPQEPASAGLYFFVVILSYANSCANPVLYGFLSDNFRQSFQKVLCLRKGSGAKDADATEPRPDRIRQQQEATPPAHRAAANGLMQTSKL
human SSTR1, sequence (P30872 whole entry): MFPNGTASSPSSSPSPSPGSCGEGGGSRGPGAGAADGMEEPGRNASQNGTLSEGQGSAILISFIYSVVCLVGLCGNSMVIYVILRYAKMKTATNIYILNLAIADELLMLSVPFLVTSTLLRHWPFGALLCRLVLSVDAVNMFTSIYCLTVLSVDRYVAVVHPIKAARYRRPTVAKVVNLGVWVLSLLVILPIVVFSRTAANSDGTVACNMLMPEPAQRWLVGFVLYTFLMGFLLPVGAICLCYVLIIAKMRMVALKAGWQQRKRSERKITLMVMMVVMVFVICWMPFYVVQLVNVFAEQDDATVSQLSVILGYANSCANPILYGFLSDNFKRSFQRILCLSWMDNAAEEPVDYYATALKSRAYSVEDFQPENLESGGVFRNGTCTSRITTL
human SSTR4, sequence (P31391 whole entry): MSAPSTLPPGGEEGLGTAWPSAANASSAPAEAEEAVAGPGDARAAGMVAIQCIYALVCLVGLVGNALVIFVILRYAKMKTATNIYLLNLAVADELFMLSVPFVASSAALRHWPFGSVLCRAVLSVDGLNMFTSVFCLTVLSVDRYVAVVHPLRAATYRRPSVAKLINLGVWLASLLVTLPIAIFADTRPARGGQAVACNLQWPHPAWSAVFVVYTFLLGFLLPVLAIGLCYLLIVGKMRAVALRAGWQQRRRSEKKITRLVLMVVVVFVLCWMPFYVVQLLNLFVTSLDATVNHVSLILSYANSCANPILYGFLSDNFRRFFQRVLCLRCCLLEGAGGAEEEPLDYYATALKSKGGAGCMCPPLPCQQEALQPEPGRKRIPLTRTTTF
human Somatostatin 4 receptor (SSTR4), sequence (P31391 whole entry): as above
human SSTR2, sequence (P30874 whole entry): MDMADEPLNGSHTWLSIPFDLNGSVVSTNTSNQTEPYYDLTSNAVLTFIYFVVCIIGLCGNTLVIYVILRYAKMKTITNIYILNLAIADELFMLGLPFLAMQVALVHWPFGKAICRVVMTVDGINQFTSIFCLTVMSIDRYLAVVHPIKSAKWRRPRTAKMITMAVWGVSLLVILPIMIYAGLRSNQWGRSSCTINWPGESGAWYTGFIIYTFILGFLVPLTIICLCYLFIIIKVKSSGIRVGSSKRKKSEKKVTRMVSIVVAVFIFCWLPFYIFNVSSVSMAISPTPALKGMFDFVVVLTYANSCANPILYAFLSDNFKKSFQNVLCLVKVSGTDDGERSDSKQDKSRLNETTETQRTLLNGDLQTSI
human SSTR3, sequence (P32745 whole entry): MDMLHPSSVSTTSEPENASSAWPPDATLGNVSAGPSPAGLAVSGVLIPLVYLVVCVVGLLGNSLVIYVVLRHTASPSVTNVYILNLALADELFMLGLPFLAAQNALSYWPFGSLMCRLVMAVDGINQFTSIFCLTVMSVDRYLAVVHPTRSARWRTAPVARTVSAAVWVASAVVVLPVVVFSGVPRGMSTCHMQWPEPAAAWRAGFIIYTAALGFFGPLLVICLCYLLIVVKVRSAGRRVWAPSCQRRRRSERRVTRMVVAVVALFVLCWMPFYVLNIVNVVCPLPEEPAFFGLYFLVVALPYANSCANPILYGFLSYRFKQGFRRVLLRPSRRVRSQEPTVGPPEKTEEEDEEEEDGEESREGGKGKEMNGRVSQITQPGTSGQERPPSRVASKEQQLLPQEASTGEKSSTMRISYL

EC50 [1, 3] | Structure (SMILES) | Ki (human SSTR4) | Ki (human SSTR1) | Ki (human SSTR2) | Ki (human SSTR3) | Ki (human SSTR5) | half-life at 1 μM [2] | EC50 ([1]; SSTR4 agonism EC50, cAMP assay)
0.4 nM | Cc1cccn2c(C(C)(C)NC(=O)[C@H]3[C@@H]4CNC[C@@H]43)nc(C3CC3)c12 [Example 128] | 7.6 nM | 1100 nM | > 9630 nM | 6180 nM | > 9860 nM | > 2.17 h | 
 | CC(C)(COc1cnccc1C(F)(F)F)NC(=O)[C@H]1[C@@H]2CNC[C@@H]21 [Example 63] | 68.9 nM | > 7510 nM | > 7880 nM | > 7070 nM | > 8080 nM | > 2.17 h | 4.1 nM
 | Cc1cccnc1C(C)(C)NC(=O)[C@H]1[C@@H]2CNC[C@@H]21.Cl.Cl [Example 25] | 114 nM | > 8960 nM | > 9610 nM | > 8640 nM | > 9860 nM | > 2.17 h | 14.8 nM
0.4 nM | Cn1nc(C(C)(C)NC(=O)[C@H]2[C@@H]3CNC[C@@H]32)c2ccccc21 [Example 49] | 4.5 nM | 4540 nM | > 9600 nM | > 8620 nM | > 9860 nM | > 2.17 h | 
 | Cc1cccn2c(C(C)(C)NC(=O)[C@H]3[C@@H]4CNC[C@@H]43)ncc12.Cl [Example 126] | 3 nM | 6630 nM | > 9630 nM | > 8710 nM | > 9860 nM | > 2.17 h | 0.4 nM
5 nM | Cc1ccccc1OCC(C)(C)NC(=O)[C@H]1[C@@H]2CNC[C@@H]21.Cl [Example 40] | 37.1 nM | > 9760 nM | > 9600 nM | > 8630 nM | > 9850 nM | > 2.17 h | 
 | Cc1nc(C(C)(C)NC(=O)[C@H]2[C@@H]3CNC[C@@H]32)c2cccc(C)c2n1 [Example 148] | 32.3 nM | 6670 nM | > 9630 nM | > 8690 nM | > 9770 nM | > 2.17 h | 1.1 nM
 | CC(C)(NC(=O)[C@H]1[C@@H]2CNC[C@@H]21)c1nccc2ccccc12.Cl [Example 24] | 2.9 nM | 2820 nM | > 9610 nM | > 8650 nM | > 9860 nM | > 2.17 h | 0.5 nM
8.1 nM | CC(C)(NC(=O)[C@H]1[C@@H]2CNC[C@@H]21)c1nc2ccc(Cl)cc2[nH]1.Cl [Example 11] | 106 nM | > 8910 nM | > 9590 nM | > 8580 nM | > 9850 nM | > 2.17 h | 

Structure (SMILES) | EC50 [1, 3] | Ki (human SSTR4) | Ki (human SSTR1) | Ki (human SSTR2) | Ki (human SSTR3) | Ki (human SSTR5) | half-life at 1 μM [2] | EC50 ([1]; SSTR4 agonism EC50, cAMP assay)
CC(C)(COc1nccc2ccccc12)NC(=O)[C@H]1[C@@H]2CNC[C@@H]21 [Example 56] | 5.5 nM | 100 nM | 3460 nM | > 9610 nM | > 8630 nM | > 9850 nM | > 2.17 h | 
CC(C)(NC(=O)[C@H]1[C@@H]2CNC[C@@H]21)c1noc2c(F)cccc12 [Example 101] | 1.2 nM | 46.2 nM | > 9090 nM | > 9600 nM | > 8600 nM | > 9850 nM | > 2.17 h | 
Cc1cccnc1OCC(C)(C)NC(=O)[C@H]1[C@@H]2CNC[C@@H]21 [Example 47] | 3.7 nM | 39.9 nM | > 9150 nM | > 9600 nM | > 8620 nM | > 9850 nM | > 2.17 h | 
